Here are results for 23 molecules from PubChem BioAssay AID330 (DTP/NCI, 2004).

For the experiment, the system named is P388 leukemia ip, CD2F1 mice, survival T/C. As to the kind of experiment: NCI In Vivo Anticancer Drug Screen. Data for tumor model P388 Leukemia (intraperitoneal) in CD2F1 (CDF1) mice. The settings on record: endpoint: median survival time, higher = longer survival. In short, it runs like this:
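Mice carrying the transplanted tumor received test compound or vehicle. Survival was recorded in each group, and the value is the treated-group measurement divided by that of the vehicle-treated control group.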

The mark [1] stands for this setting: dose: 50.0 mg/kg/injection, schedule: Q01DX005 (ip), vehicle: Klucel (hydroxypropylcellulose) (HPC).
The mark [2] stands for this setting: dose: 100.0 mg/kg/injection, schedule: Q01DX005 (ip), vehicle: Klucel (hydroxypropylcellulose) (HPC).
The mark [3] stands for this setting: dose: 60.0 mg/kg/injection, schedule: Q01DX005 (ip), vehicle: saline with Tween-80.
[4] abbreviates: dose: 120.0 mg/kg/injection, schedule: Q01DX005 (ip), vehicle: saline with Tween-80.
[5] abbreviates: dose: 50.0 mg/kg/injection, schedule: Q01DX005 (ip), vehicle: saline with Tween-80.
Setting [6] is: dose: 100.0 mg/kg/injection, schedule: Q01DX005 (ip), vehicle: saline with Tween-80.
Setting [7] is: dose: 200.0 mg/kg/injection, schedule: Q01DX005 (ip), vehicle: saline with Tween-80.
Setting [8] is: dose: 100.0 mg/kg/injection, schedule: Q01DX009 (ip), vehicle: saline with Tween-80.
[9] abbreviates: dose: 200.0 mg/kg/injection, schedule: Q01DX009 (ip), vehicle: saline with Tween-80.
[10] abbreviates: dose: 400.0 mg/kg/injection, schedule: Q01DX009 (ip), vehicle: saline with Tween-80.
Setting [11] is: dose: 100.0 mg/kg/injection, schedule: Q04DX003 (ip), vehicle: saline with Tween-80.
The mark [12] stands for this setting: dose: 200.0 mg/kg/injection, schedule: Q04DX003 (ip), vehicle: saline with Tween-80.
Setting [13] is: dose: 400.0 mg/kg/injection, schedule: Q04DX003 (ip), vehicle: saline with Tween-80.

Where “and” joins values, the source holds several entries; their conditions need not be identical. Equal entries are not always repeated. Inconclusive results and toxic doses are left out.

For the molecule `COc1cc2cccc(N)c2cc1OC`, the T/C reads like this: (dose: 6.25 mg/kg/injection, schedule: Q01DX009 (ip), vehicle: water) 106 % of control; (dose: 12.5 mg/kg/injection, schedule: Q01DX009 (ip), vehicle: water) 114 % of control; (dose: 25.0 mg/kg/injection, schedule: Q01DX009 (ip), vehicle: water) 110 % of control; (dose: 50.0 mg/kg/injection, schedule: Q01DX009 (ip), vehicle: water) 110 % of control.

Consider `COc1cc(O)c(CC=C(C)C)cc1O`, for which the T/C by setting is: under setting [1], 105 % of control; under setting [2], 101 % of control.

For `CCOP(=O)(O)C1CCCC(C)[N-]1.CCOP(=O)(O)C1CCCC(C)[N-]1.[Ni+2]` (stereo not given), the T/C was 99 % of control (dose: 12.5 mg/kg/injection, schedule: Q04DX003 (ip), vehicle: Klucel (hydroxypropylcellulose) (HPC)); 107 % of control (dose: 25.0 mg/kg/injection, schedule: Q04DX003 (ip), vehicle: Klucel (hydroxypropylcellulose) (HPC)); 107 % of control (dose: 50.0 mg/kg/injection, schedule: Q04DX003 (ip), vehicle: Klucel (hydroxypropylcellulose) (HPC)).

Take `Cc1ccc2nc(C)cc(N=[N+]=[N-])c2c1`: the T/C under setting [3] is 95 % of control and the T/C under setting [4] is 89 % of control.

With `CSc1nc(SC)c2c(C)cn(COCCOC(=O)c3ccccc3)c2n1`, the T/C was 104 % of control (dose: 100.0 mg/kg/injection, schedule: Q01DX001 (ip), vehicle: saline with Tween-80); 100 % of control (dose: 200.0 mg/kg/injection, schedule: Q01DX001 (ip), vehicle: saline with Tween-80); 91 % of control (dose: 400.0 mg/kg/injection, schedule: Q01DX001 (ip), vehicle: saline with Tween-80).

Take `Cc1cc(=O)[nH]c2c1CCCC2`: the T/C (dose: 100.0 mg/kg/injection, schedule: Q04DX003 (ip), vehicle: saline sonified) is 107 % of control; the T/C (dose: 200.0 mg/kg/injection, schedule: Q04DX003 (ip), vehicle: saline sonified) is 96 % of control; the T/C (dose: 400.0 mg/kg/injection, schedule: Q04DX003 (ip), vehicle: saline sonified) was 92 % of control.

Take `O=C1Nc2ccccc2C2CCCCC12` (stereo not given): the T/C was 107 % of control under setting [5], 102 % of control under setting [6] and 98 % of control under setting [7].

As to `O=C1c2cccc3cccc(c23)C(=O)N1CCCCCCCCN1C(=O)c2cccc3cccc(c23)C1=O`, the T/C is 96 % of control under setting [5], 95 % of control under setting [6] and 87 % of control under setting [7].

As for `CCNC(=O)C(C)O` (stereo not given), the T/C (dose: 50.0 mg/kg/injection, schedule: Q01DX005 (ip), vehicle: saline) is 102 % of control; the T/C (dose: 100.0 mg/kg/injection, schedule: Q01DX005 (ip), vehicle: saline) was 102 % of control; the T/C (dose: 200.0 mg/kg/injection, schedule: Q01DX005 (ip), vehicle: saline) was 98 % of control.

Regarding `C=C1C2CCC3C4(C)CCCC(C)(C(=O)O)C4CCC3(C2)C1O` (stereo not given), the T/C is, setting by setting: (dose: 15.0 mg/kg/injection, schedule: Q01DX005 (ip), vehicle: Klucel (hydroxypropylcellulose) (HPC)) 100 % of control; (dose: 30.0 mg/kg/injection, schedule: Q01DX005 (ip), vehicle: Klucel (hydroxypropylcellulose) (HPC)) 100 % of control; (dose: 60.0 mg/kg/injection, schedule: Q01DX005 (ip), vehicle: Klucel (hydroxypropylcellulose) (HPC)) 99 % of control; (dose: 120.0 mg/kg/injection, schedule: Q01DX005 (ip), vehicle: Klucel (hydroxypropylcellulose) (HPC)) 100 % of control.

With `O=C(NCc1ccccc1)c1cccnc1`, the T/C (dose: 100.0 mg/kg/injection, schedule: Q01DX009 (ip), vehicle: saline) is 100 % of control; the T/C (dose: 200.0 mg/kg/injection, schedule: Q01DX009 (ip), vehicle: saline) is 98 % of control; the T/C (dose: 400.0 mg/kg/injection, schedule: Q01DX009 (ip), vehicle: saline) was 100 % of control.

Take `O=C1N=C2C=CC=CN2C(=O)C1Cc1ccccc1` (stereo not given): the T/C is, setting by setting: under setting [8], 120 % of control; under setting [9], 110 % of control; under setting [10], 90 % of control.

Take `CCOC(=O)N1CCc2cc(OC)c(OC)cc2C1(O)Cc1cc(OC)c(OC)cc1Br` (stereo not given): the T/C runs as follows: (dose: 25.0 mg/kg/injection, schedule: Q01DX009 (ip), vehicle: other) 109 % of control; (dose: 50.0 mg/kg/injection, schedule: Q01DX009 (ip), vehicle: other) 106 % of control; (dose: 100.0 mg/kg/injection, schedule: Q01DX009 (ip), vehicle: other) 103 % of control; (dose: 200.0 mg/kg/injection, schedule: Q01DX009 (ip), vehicle: other) 113 % of control; (dose: 400.0 mg/kg/injection, schedule: Q01DX009 (ip), vehicle: other) 113 % of control.

For the molecule `COC(=O)c1ccc(SSc2ccc(C(=O)OC)cc2[N+](=O)[O-])c([N+](=O)[O-])c1`, the T/C reads like this: under setting [8], 91 % of control; under setting [11], 90 % of control; under setting [9], 100 % of control; under setting [12], 95 % of control; under setting [10], 91 % of control; under setting [13], 90 % of control.

`COc1cccc2c1C(=O)c1c(O)c3c(c(O)c1C2=O)CC(O)(c1cscn1)CC3OC1CC(N)C(O)C(C)O1` (stereo not given): the T/C was 118 % of control (dose: 25.0 mg/kg/injection, schedule: Q04DX003 (ip), vehicle: water); 157 % of control (dose: 50.0 mg/kg/injection, schedule: Q04DX003 (ip), vehicle: water); 124 % of control (dose: 100.0 mg/kg/injection, schedule: Q04DX003 (ip), vehicle: water).

Consider `Cc1ccc2c(c1)sc(C)[n+]2CCO`, for which the T/C is, setting by setting: under setting [3], 100 % of control; under setting [4], 101 % of control; (dose: 240.0 mg/kg/injection, schedule: Q01DX005 (ip), vehicle: saline with Tween-80) 101 % of control.

Turning to `CS(C)=Nc1ccc([N+](=O)[O-])cc1`, the T/C is 109 % of control (dose: 100.0 mg/kg/injection, schedule: Q01DX001 (ip), vehicle: Klucel (hydroxypropylcellulose) (HPC)) and 100 % of control (dose: 200.0 mg/kg/injection, schedule: Q01DX001 (ip), vehicle: Klucel (hydroxypropylcellulose) (HPC)).

With `[Cl][Pt+2][Cl].[NH-]C(c1ccccc1)C([NH-])c1ccccc1` (stereo not given), the T/C by setting is: (dose: 1.56 mg/kg/injection, schedule: Q04DX002 (ip), vehicle: saline with Tween-80) 112 % of control; (dose: 3.12 mg/kg/injection, schedule: Q04DX002 (ip), vehicle: saline with Tween-80) 103 % of control; (dose: 3.13 mg/kg/injection, schedule: Q04DX002 (ip), vehicle: saline with Tween-80) 111 % of control; (dose: 6.25 mg/kg/injection, schedule: Q04DX002 (ip), vehicle: saline with Tween-80) 117 % of control [middle of 4 runs].

For `COc1ccc(S(N)(=O)=O)cc1[N+](=O)[O-]`, the T/C reads like this: (dose: 100.0 mg/kg/injection, schedule: Q04DX003 (ip), vehicle: Klucel (hydroxypropylcellulose) (HPC)) 97 % of control; (dose: 200.0 mg/kg/injection, schedule: Q04DX003 (ip), vehicle: Klucel (hydroxypropylcellulose) (HPC)) 104 % of control; (dose: 400.0 mg/kg/injection, schedule: Q04DX003 (ip), vehicle: Klucel (hydroxypropylcellulose) (HPC)) 97 % of control.

As to `[N-]=[N+]=CC(=O)NCC(=O)NN=C(CO)CO`, the T/C (dose: 180.0 mg/kg/injection, schedule: Q01DX009 (ip), vehicle: water) is 154 % of control; the T/C (dose: 270.0 mg/kg/injection, schedule: Q01DX009 (ip), vehicle: water) was 172 % of control; the T/C (dose: 400.0 mg/kg/injection, schedule: Q01DX009 (ip), vehicle: water) was 172 % of control; the T/C (dose: 600.0 mg/kg/injection, schedule: Q01DX009 (ip), vehicle: water) was 181 % of control.

In the case of `CC1CCC(C(=O)C2CCCCC2CC2CCCCC2)CC1` (stereo not given), the T/C was 105 % of control under setting [5], 102 % of control under setting [6] and 96 % of control under setting [7].

As for `C=C(Cl)C(=NC(C)(C)C)Nc1c(Cl)cccc1Cl`, the T/C runs as follows: under setting [1], 98 % of control and 95 % of control; under setting [2], 100 % of control; (dose: 200.0 mg/kg/injection, schedule: Q01DX005 (ip), vehicle: Klucel (hydroxypropylcellulose) (HPC)) 100 % of control and 90 % of control.

As to `CSC(=S)N(C)N`, the T/C reads like this: under setting [11], 111 % of control; under setting [12], 105 % of control; under setting [13], 100 % of control.
